# Laboratory results reported in US20240109917A1 (ACTELION PHARMACEUTICALS LTD, priority 2020, published 2024).
# Assays:
# [1] = molecular target: Tb-labeled inactive PDGFRβ (Homo sapiens (Human), UniProt P09619); test: PDGFRβ LanthaScreen Assay; format: binding; settings: read-out: PDGFR Lantha IC50
# [2] = molecular target: His6-TEV-PDGFRβ (557-1016) (Homo sapiens (Human), UniProt P09619); test: PDGFRβ HTRF Assay; format: biochemical; settings: read-out: PDGFR HTRF IC50
# In short: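 HTRF KinEASE-TK readout (665/620 nm ratio) of TK-biotin substrate phosphorylation by His-tagged PDGFRβ kinase domain. Enzyme and inhibitor preincubated 30 min, then ATP/substrate added for 3 h at room temperature before 60 min EDTA quench/detection.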
# VEGFR2, unphosphorylated = VEGFR2, unphosphorylated (Homo sapiens (Human), UniProt P35968); test: VEGFR ADP GLO Assay; format: biochemical
# VEGFR2, unphosphorylated, sequence (P35968 20-1356): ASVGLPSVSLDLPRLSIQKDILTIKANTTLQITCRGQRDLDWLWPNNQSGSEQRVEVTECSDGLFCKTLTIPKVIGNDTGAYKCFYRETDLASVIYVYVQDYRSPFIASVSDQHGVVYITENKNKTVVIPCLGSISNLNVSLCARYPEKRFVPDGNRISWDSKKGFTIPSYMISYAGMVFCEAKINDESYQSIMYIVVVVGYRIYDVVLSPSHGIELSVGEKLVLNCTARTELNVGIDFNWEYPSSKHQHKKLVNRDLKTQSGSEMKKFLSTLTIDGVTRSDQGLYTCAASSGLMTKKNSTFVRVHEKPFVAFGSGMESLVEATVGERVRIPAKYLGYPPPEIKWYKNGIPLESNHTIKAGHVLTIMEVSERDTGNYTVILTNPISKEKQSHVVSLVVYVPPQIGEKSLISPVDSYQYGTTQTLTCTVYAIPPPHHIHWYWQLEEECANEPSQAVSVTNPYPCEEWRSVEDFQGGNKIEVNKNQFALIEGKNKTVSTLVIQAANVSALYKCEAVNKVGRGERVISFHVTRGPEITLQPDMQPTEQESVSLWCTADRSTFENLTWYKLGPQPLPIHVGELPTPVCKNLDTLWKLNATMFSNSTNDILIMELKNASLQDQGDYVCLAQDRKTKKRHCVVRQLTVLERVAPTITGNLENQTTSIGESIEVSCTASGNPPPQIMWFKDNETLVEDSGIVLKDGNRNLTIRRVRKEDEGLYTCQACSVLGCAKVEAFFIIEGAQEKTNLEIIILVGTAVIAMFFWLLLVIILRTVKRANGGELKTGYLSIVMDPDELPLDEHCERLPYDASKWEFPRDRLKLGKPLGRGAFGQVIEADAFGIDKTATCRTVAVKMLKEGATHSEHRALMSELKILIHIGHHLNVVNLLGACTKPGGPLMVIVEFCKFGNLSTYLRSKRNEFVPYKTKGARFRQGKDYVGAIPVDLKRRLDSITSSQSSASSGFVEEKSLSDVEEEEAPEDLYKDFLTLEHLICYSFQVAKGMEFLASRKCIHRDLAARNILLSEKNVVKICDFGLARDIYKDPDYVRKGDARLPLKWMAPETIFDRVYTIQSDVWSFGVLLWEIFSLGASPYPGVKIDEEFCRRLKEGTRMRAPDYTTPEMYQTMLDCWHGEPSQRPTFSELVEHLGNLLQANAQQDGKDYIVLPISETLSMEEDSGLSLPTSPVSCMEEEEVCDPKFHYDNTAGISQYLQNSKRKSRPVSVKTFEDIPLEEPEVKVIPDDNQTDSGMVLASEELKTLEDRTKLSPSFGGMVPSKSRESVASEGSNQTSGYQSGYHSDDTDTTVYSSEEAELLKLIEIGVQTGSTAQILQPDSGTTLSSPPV
# Tb-labeled inactive PDGFRβ, sequence (P09619 33-1106): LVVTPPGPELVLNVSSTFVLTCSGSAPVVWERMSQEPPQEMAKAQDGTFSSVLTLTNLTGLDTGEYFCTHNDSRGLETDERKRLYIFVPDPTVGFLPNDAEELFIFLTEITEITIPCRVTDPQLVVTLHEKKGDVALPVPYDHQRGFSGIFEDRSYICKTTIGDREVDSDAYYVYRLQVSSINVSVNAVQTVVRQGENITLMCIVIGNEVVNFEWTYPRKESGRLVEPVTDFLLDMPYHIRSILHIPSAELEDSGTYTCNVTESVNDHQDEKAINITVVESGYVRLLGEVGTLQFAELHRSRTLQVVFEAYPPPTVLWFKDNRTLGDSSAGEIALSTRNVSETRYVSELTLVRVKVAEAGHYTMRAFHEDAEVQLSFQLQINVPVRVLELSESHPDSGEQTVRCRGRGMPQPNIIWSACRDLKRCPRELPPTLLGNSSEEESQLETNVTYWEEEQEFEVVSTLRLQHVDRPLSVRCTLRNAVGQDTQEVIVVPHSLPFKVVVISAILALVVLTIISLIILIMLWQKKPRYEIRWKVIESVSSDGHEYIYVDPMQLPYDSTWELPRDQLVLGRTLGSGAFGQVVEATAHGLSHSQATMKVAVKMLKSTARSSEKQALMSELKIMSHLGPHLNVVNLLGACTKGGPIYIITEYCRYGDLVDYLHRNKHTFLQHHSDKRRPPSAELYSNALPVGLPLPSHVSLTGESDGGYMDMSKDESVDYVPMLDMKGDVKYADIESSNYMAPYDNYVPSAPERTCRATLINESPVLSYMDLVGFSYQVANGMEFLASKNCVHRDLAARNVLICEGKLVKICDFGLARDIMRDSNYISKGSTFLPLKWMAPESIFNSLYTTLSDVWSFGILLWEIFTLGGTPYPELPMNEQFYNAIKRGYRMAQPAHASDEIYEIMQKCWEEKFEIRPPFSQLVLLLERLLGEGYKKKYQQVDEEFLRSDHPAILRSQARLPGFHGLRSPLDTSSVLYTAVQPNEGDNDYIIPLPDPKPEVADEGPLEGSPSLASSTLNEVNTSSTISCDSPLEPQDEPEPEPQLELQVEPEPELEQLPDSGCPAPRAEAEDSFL
# His6-TEV-PDGFRβ (557-1016), sequence (P09619 557-1016): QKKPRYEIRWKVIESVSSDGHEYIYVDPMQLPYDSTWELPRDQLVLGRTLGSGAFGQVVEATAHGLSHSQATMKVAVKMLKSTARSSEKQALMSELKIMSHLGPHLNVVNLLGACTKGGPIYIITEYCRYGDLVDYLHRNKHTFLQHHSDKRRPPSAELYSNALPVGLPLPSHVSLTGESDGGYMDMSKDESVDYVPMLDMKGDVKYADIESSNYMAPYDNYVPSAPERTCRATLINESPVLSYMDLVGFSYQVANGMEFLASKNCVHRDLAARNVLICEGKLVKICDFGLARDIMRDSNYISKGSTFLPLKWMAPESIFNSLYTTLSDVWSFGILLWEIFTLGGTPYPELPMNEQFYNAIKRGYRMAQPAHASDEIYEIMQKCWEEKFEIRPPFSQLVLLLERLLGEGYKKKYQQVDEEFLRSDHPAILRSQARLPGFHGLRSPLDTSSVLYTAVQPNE
SMILES,IC50 [1],IC50 [2],"IC50 (VEGFR2, unphosphorylated)"
"Cc1ncc(NC(=O)OCCN2CCCC2)cc1NC(=O)c1cnn2cc(-c3cnn(C)c3)sc12 [Example 246, 2-(pyrrolidin-1-yl)ethyl (6-methyl-5-(2-(1-methyl-1H-pyrazol-4-yl)pyrazolo[5,1-b]thiazole-7-carboxamido)pyridin-3-yl)carbamate]",64.7 nM,1.4 nM,> 7500 nM
"Cc1cc(C(=O)NCCN2CCCC2(C)C)sc1NC(=O)c1cnn2cc(-c3ccn(C)n3)sc12 [Example 188, N-(5-((2-(2,2-dimethylpyrrolidin-1-yl)ethyl)carbamoyl)-3-methylthiophen-2-yl)-2-(1-methyl-1H-pyrazol-3-yl)pyrazolo[5,1-b]thiazole-7-carboxamide]",683 nM,9.5 nM,> 7500 nM
"Cc1ncc(C(=O)NC[C@H]2CCCN2CCO)cc1NC(=O)c1cnn2cc(-c3cnn(C)c3)sc12 [Example 236, (R)—N-(5-(((1-(2-hydroxyethyl)pyrrolidin-2-yl)methyl)carbamoyl)-2-methylpyridin-3-yl)-2-(1-methyl-1H-pyrazol-4-yl)pyrazolo[5,1-b]thiazole-7-carboxamide]",83.6 nM,2.1 nM,> 2500 nM
"COCCn1cc(-c2cn3ncc(C(=O)Nc4cc(NC(=O)CCCN5CCC[C@@H]5C)cnc4C)c3s2)cn1 [Example 216, (S)-2-(1-(2-methoxyethyl)-1H-pyrazol-4-yl)-N-(2-methyl-5-(4-(2-methylpyrrolidin-1-yl)butanamido)pyridin-3-yl)pyrazolo[5,1-b]thiazole-7-carboxamide]",47.8 nM,1.5 nM,> 7500 nM
"COc1ncccc1-c1cn2ncc(C(=O)Nc3cc(NC(=O)CN4CCCC4(C)C)cnc3C)c2s1 [Example 233, N-(5-(2-(2,2-dimethylpyrrolidin-1-yl)acetamido)-2-methylpyridin-3-yl)-2-(2-methoxypyridin-3-yl)pyrazolo[5,1-b]thiazole-7-carboxamide]",1.1 nM,0.2 nM,> 7500 nM
"Cc1ncc(C(=O)NCCN2CC3CCC2CC3)cc1NC(=O)c1cnn2cc(-c3cnn(C4CC4)c3)sc12 [Example 181, N-(5-((2-(2-azabicyclo[2.2.2]octan-2-yl)ethyl)carbamoyl)-2-methylpyridin-3-yl)-2-(1-cyclopropyl-1H-pyrazol-4-yl)pyrazolo[5,1-b]thiazole-7-carboxamide]",2.3 nM,0.2 nM,> 7500 nM
"Cc1ncc(C(=O)NCCN2CCCC2(C)C)cc1NC(=O)c1cnn2cc(-c3cncc(S(C)(=O)=O)c3)sc12 [Example 230, N-(5-((2-(2,2-dimethylpyrrolidin-1-yl)ethyl)carbamoyl)-2-methylpyridin-3-yl)-2-(5-(methylsulfonyl)pyridin-3-yl)pyrazolo[5,1-b]thiazole-7-carboxamide]",82.9 nM,3.2 nM,> 2500 nM
"Cc1cc(C(=O)NCCN2CC3CCC2CC3)sc1NC(=O)c1cnn2cc(-c3cnn(C)c3)sc12 [Example 199, N-(5-((2-(2-azabicyclo[2.2.2]octan-2-yl)ethyl)carbamoyl)-3-methylthiophen-2-yl)-2-(1-methyl-1H-pyrazol-4-yl)pyrazolo[5,1-b]thiazole-7-carboxamide]",125 nM,2 nM,> 7500 nM
"Cc1ncc(C(=O)NC2CN(C(C)(C)C)C2)cc1NC(=O)c1cnn2cc(-c3cccc4c3cnn4C)sc12 [Example 238, N-(5-((1-(tert-butyl)azetidin-3-yl)carbamoyl)-2-methylpyridin-3-yl)-2-(1-methyl-1H-indazol-4-yl)pyrazolo[5,1-b]thiazole-7-carboxamide]",7.5 nM,0.4 nM,> 2500 nM
"Cc1ncc(C(=O)NCCN2C[C@H]3CC[C@@H]2C3)cc1NC(=O)c1cnn2cc(-c3cnn(C)c3C)sc12 [Example 208, N-(5-((2-((1R,4S)-2-azabicyclo[2.2.1]heptan-2-yl)ethyl)carbamoyl)-2-methylpyridin-3-yl)-2-(1,5-dimethyl-1H-pyrazol-4-yl)pyrazolo[5,1-b]thiazole-7-carboxamide]",4.3 nM,0.3 nM,> 7500 nM
"Cc1ncc(C(=O)NCCN2CCCC2)cc1NC(=O)c1cnn2cc(-c3cnn(CCC(O)CO)c3)sc12 (stereo not drawn) [Example 222, 2-(1-(3,4-Dihydroxybutyl)-1H-pyrazol-4-yl)-N-(2-methyl-5-((2-(pyrrolidin-1-yl)ethyl)carbamoyl)pyridin-3-yl)pyrazolo[5,1-b]thiazole-7-carboxamide]",16.5 nM,0.7 nM,> 7500 nM
"COc1ncccc1-c1cn2ncc(C(=O)Nc3cc(C(=O)NCCN4CCCC4)cnc3C)c2s1 [Example 229, 2-(2-Methoxypyridin-3-yl)-N-(2-methyl-5-((2-(pyrrolidin-1-yl)ethyl)carbamoyl)pyridin-3-yl)pyrazolo[5,1-b]thiazole-7-carboxamide]",1.6 nM,0.2 nM,> 833 nM
"Cc1cc(C(=O)NCCN2CCC3(CCC3)CC2)sc1NC(=O)c1cnn2cc(-c3cnn(C)c3)sc12 [Example 203, N-(5-((2-(7-azaspiro[3.5]nonan-7-yl)ethyl)carbamoyl)-3-methylthiophen-2-yl)-2-(1-methyl-1H-pyrazol-4-yl)pyrazolo[5,1-b]thiazole-7-carboxamide]",1060 nM,25 nM,> 7500 nM
"Cc1cc(C(=O)NCCN2CCCC2(C)C)sc1NC(=O)c1cnn2cc(-c3ccc(N)nc3)sc12 [Example 184, 2-(6-aminopyridin-3-yl)-N-(5-((2-(2,2-dimethylpyrrolidin-1-yl)ethyl)carbamoyl)-3-methylthiophen-2-yl)pyrazolo[5,1-b]thiazole-7-carboxamide]",829 nM,15.9 nM,> 7500 nM
"Cc1ncc(C(=O)NCCN2CCCC2)cc1NC(=O)c1cnn2cc(-c3cnn(C)c3C)sc12 [Example 220, 2-(1,5-Dimethyl-1H-pyrazol-4-yl)-N-(2-methyl-5-((2-(pyrrolidin-1-yl)ethyl)carbamoyl)pyridin-3-yl)pyrazolo[5,1-b]thiazole-7-carboxamide]",5 nM,0.2 nM,> 7500 nM
"Cc1ncc(NC(=O)CN2CCC(F)(F)CC2)cc1NC(=O)c1cnn2cc(-c3cnn(C)c3)sc12 [Example 14, N-(5-(2-(4,4-difluoropiperidin-1-yl)acetamido)-2-methylpyridin-3-yl)-2-(1-methyl-1H-pyrazol-4-yl)pyrazolo[5,1-b]thiazole-7-carboxamide]",2.7 nM,0.4 nM,> 7500 nM
"Cc1ncc(NC(=O)CCN2CCCC2(C)C)cc1NC(=O)c1cnn2cc(-c3ccn(C)n3)sc12 [Example 12, N-(5-(3-(2,2-dimethylpyrrolidin-1-yl)propanamido)-2-methyl-pyridin-3-yl)-2-(1-methyl-1H-pyrazol-3-yl)pyrazolo[5,1-b]thiazole-7-carboxamide]",3.3 nM,0.3 nM,> 7500 nM
"Cc1ncc(C(=O)NCCN2CCCC2)cc1NC(=O)c1cnn2cc(-c3cn(C)nc3C(F)(F)F)sc12 [Example 227, 2-(1-Methyl-3-(trifluoromethyl)-1H-pyrazol-4-yl)-N-(2-methyl-5-((2-(pyrrolidin-1-yl)ethyl)carbamoyl)pyridin-3-yl)pyrazolo[5,1-b]thiazole-7-carboxamide]",21.3 nM,0.9 nM,> 833 nM
